We go through six molecules from US20220062240A1, “METHODS OF TREATING CANCER USING A CLK INHIBITOR” (BioSplice Therapeutics, Inc., priority 2018, published 2022).

The target in test [1] is CLK3 (Homo sapiens, UniProt P49761). The experiment in a line: CLK3 kinase activity assay (Z-lyte, Ser/Thr 18 peptide).
In test [2] the target is T1, CLK2 (Homo sapiens, UniProt P49760).
T1 construct: purchased Thermo Fisher (Life Technologies), Z'-LYTE Kinase Assay Kits
The test can be described thus: CLK2 kinase activity assay (Z-lyte, Ser/Thr 6 peptide). Format: biochemical. The settings on record: recombinant CLK2 kinase, ATP 60 μM; read-out: EC50. Here is the method: All reactions were performed in duplicate.

The subject of test [3] is SW480 colorectal cancer cells. The test can be described thus: Gene expression qRT-PCR in SW480 cells. The settings on record: Homo sapiens. Format: cell-based. As for the experimental part: SW480 colorectal cancer cells were plated at 1×10^4 cells per well into 96-well plates (Olympus). Compounds were diluted in cell culture media and added to the cells at a final concentration of 3 μM. Cells were treated with vehicle (DMSO) and compounds for 24 hours. N=3 biological replicates per conditions.
Following treatment, cells were lysed, and cDNA was generated using the Fastlane Cell cDNA Kit (Qiagen).
384-well PCR plates with pre-spotted primers for CLK1, CLK2, CLK3, DVL2, LRP5, SRSF1, SRSF3, SRSF4, SRSF5, TCF7, TCF7L2 were ordered from Bio-Rad. The generated cDNA, along with a SYBR Green qRT-PCR master mix (SsoAdvanced™ Universal SYBR® Green Supermix, Bio-Rad) was added to the PCR plates.
qRT-PCR was performed on the plates using a CFX384 Touch™ Real-Time PCR Detection System (Bio-Rad) with the manufacturer's recommended thermal cycling conditions.
Data from the qRT-PCR assay was normalized to the GAPDH and HPRT1 housekeeping genes and set gene expression fold change was set relative to vehicle-treated cells using the ΔΔCt analysis method.
Background: Quantitative PCR measures a nucleic acid by following its amplification.

The test system of test [4] is Wnt-responsive Sp5-Luc reporter in SW480 colon carcinoma cells. The test can be described thus: Wnt activity screening assay (Sp5-Luc reporter). Type of test: cell-based. As to conditions: Homo sapiens. The source says:
The screening assay for Wnt activity is described as follows. Reporter cell lines can be generated by stably transducing cancer cell lines (e.g., colon cancer) or primary cells (e.g., IEC-6 intestinal cells) with a lentiviral construct that includes a Wnt-responsive promoter driving expression of the firefly luciferase gene.
SW480 colon carcinoma cells were transduced with a lentiviral vector expressing luciferase with a human Sp5 promoter consisting of a sequence of eight TCF/LEF binding sites. […] These stably transduced SW480 cells were expanded in cell culture and used for all further screening activities. […] For Sp5-Luc reporter gene assays, the cells were plated at 4,000 cells/well in 384-well plates with a DMEM medium containing 1% fetal bovine serum, and 1% Penicillin-Streptomycin and incubated for 36 to 48 hours at 37° C. and 5% CO2. Following incubation, 15 μL of BriteLite Plus luminescence reagent (Perkin Elmer) was added to each well of the 384-well assay plates. The plates were placed on an orbital shaker for 2 min and then luminescence was quantified using the Envision (Perkin Elmer) plate reader.

The subject of test [5] is all 50 cell lines. The experiment in a line: CellTiter-Glo Viability Assay, average across all cell lines. The settings on record: Homo sapiens; across all 50 cell lines; read-out: average EC50 for inhibition of cancer cell proliferation. Type of test: cell-based. As for the experimental part:
Fifty-one human cancer cell lines (breast cancer (8 cell lines), colorectal cancer (6 cell lines), haematopoietic & lymphoid tumors (13 cell lines), liver cancer (3 cell lines), lung cancer (4 cell lines), ovarian cancer (4 cell lines), pancreatic cancer (8 cell lines), and prostate cancer (5 cell lines)) were tested to determine the effects of representative compounds of Formulas (I)-(XII) on cellular proliferation, as evaluated using the CellTiter-Glo® Viability Assay.
For the Cell Viability Assays, cells were plated at 300-3,000 cells/well in 384-well plates in their respective media containing 1% Penicillin-Streptomycin and incubated for four days at 37° C. and 5% CO2. Twenty-eight replicates of DMSO-treated cells served as controls and cells treated with compound were performed in duplicate.
After incubation, 10 μL of CellTiter-Glo® (Promega) was added to each well allowed to incubate for approximately 12 minutes. This reagent results in cell lysis and generation of a luminescent signal proportional to the amount of ATP present. The amount of ATP is directly proportional to the number of metabolically active, viable cells present in culture. The CellTiter-Glo® Assay generates a luminescent signal, produced by the luciferase reaction (Promega.com).
After incubation, the luminescence signal was read using an EnVision™ Multilabel Plate Reader (Perkin Elmer). Dose-response curves were generated and EC50 concentration values were calculated using Dotmatics' Studies Software (Bishops Stortford, UK).

[6] abbreviates: SW480 Sp5-Luc reporter, 36 to 48 hours, read-out: EC50.

pEC50: −log10 of the molar value. Like-named read-outs stand apart in the source and are kept apart here.

Chain of CLK3 (P49761 whole entry): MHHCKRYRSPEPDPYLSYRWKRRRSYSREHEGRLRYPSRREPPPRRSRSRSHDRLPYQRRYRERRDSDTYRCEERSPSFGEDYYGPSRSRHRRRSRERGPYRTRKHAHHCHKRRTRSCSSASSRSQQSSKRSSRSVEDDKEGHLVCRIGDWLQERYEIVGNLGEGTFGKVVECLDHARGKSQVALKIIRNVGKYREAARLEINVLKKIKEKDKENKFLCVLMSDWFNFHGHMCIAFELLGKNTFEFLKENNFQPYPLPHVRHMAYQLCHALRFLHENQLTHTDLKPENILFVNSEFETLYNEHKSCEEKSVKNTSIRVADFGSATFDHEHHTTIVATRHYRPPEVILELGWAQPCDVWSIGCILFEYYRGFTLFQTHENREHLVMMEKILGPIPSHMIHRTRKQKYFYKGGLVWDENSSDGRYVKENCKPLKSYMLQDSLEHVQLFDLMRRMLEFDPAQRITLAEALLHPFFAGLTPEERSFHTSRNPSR
T1 sequence (P49760 whole entry): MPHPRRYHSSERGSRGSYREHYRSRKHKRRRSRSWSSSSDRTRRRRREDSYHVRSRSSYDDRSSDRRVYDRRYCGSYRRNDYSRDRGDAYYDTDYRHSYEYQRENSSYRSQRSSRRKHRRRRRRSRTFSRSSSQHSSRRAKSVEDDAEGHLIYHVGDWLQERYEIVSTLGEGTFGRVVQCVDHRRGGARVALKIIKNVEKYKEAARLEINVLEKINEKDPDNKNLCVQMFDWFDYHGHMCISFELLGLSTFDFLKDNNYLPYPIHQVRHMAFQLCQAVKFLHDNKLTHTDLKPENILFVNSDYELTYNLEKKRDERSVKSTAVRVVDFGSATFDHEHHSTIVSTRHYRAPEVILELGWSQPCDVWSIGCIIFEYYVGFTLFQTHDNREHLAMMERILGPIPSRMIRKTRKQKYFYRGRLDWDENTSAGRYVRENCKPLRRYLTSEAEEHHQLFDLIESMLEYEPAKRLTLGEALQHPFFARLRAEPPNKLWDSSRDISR

Consider `CCS(=O)(=O)c1cccc(-c2cc(C(=O)NC3CCN(C)CC3)c(C)c3[nH]c4ncc(C)cc4c23)c1` [Compound 24], for which the pEC50 in test [1] was 7.15; in test [2] it was 8.52; in test [4] (SW480), 6.49. For the same molecule, the fold induction at 3 µM in test [3] (SW480, 24 h, read-out: gene expression fold change CLK1) came out at 0.35; in test [3] (SW480, 24 h, read-out: gene expression fold change CLK2) it was 0.19; in test [3] (SW480, 24 h, read-out: gene expression fold change CLK3), 0.19; in test [3] (SW480, 24 h, read-out: gene expression fold change DVL2), 0.39; in test [3] (SW480, 24 h, read-out: gene expression fold change LRP5) it was 0.34; in test [3] (SW480, 24 h, read-out: gene expression fold change SRSF1), 0.46. The fold induction at 3 µM in test [3] (SW480, 24 h, read-out: gene expression fold change SRSF3) was 0.31; in test [3] (SW480, 24 h, read-out: gene expression fold change SRSF4), 0.37; in test [3] (SW480, 24 h, read-out: gene expression fold change SRSF5) it was 0.49; in test [3] (SW480, 24 h, read-out: gene expression fold change TCF7), 0.49; in test [3] (SW480, 24 h, read-out: gene expression fold change TCF7L2), 0.33.
`Cc1nc(Nc2n[nH]c3c2CN(C(=O)N[C@H](CN(C)C)c2ccccc2)C3(C)C)c2sccc2n1` [Compound 25]: the pEC50 in test [1] was 6.84; in test [2], 8.00; in test [4] (setting [6]), 6.94. The fold induction at 3 µM in test [3] (SW480, 3 μM, 24 hours, relative to DMSO, read-out: gene expression fold change CLK1) is 0.07; in test [3] (SW480, 3 μM, 24 hours, relative to DMSO, read-out: gene expression fold change CLK2) it was 0.09; in test [3] (SW480, 3 μM, 24 hours, relative to DMSO, read-out: gene expression fold change CLK3), 0.08; in test [3] (SW480, 3 μM, 24 hours, relative to DMSO, read-out: gene expression fold change DVL2), 0.21; in test [3] (SW480, 3 μM, 24 hours, relative to DMSO, read-out: gene expression fold change LRP5), 0.09; in test [3] (SW480, 3 μM, 24 hours, relative to DMSO, read-out: gene expression fold change SRSF1), 0.2. Besides, the fold induction at 3 µM in test [3] (SW480, 3 μM, 24 hours, relative to DMSO, read-out: gene expression fold change SRSF3) stood at 0.1; in test [3] (SW480, 3 μM, 24 hours, relative to DMSO, read-out: gene expression fold change SRSF4), 0.09; in test [3] (SW480, 3 μM, 24 hours, relative to DMSO, read-out: gene expression fold change SRSF5), 0.19; in test [3] (SW480, 3 μM, 24 hours, relative to DMSO, read-out: gene expression fold change TCF7) it was 0.21; in test [3] (SW480, 3 μM, 24 hours, relative to DMSO, read-out: gene expression fold change TCF7L2) it was 0.11.
Take `CC(C)CC(=O)Nc1cncc(-c2cc3c(-c4nc5c(-c6cc(F)cc(OCCN7CCCC7)c6)cncc5[nH]4)n[nH]c3cn2)c1` [Compound 45]: the pEC50 in test [5] was 5.07; in test [4] (setting [6]) it was under 5.00.
Turning to `CN(C)CCOc1cncc(-c2cc3c(-c4cc5c(-c6cccnc6)ccnc5[nH]4)n[nH]c3cn2)c1` [Compound 49], the pEC50 is 7.71 in test [1], 5.01 in test [5], 8.66 in test [2] and under 5.00 in test [4] (setting [6]).
With `Cc1ncc(-c2cnc3[nH]nc(-c4cc5c(-c6cc(F)cc(NCCN(C)C)c6)ccnc5[nH]4)c3c2)n1C` [Compound 52], the pEC50 in test [1] was 7.58; in test [5], 5.07; in test [2] it was 8.72.
Consider `O=C(Nc1c[nH]nc1-c1nc2c(-c3cccc(F)c3)cncc2[nH]1)C1CCNCC1` [Compound 89], for which the pEC50 is 7.52 in test [1], 5.07 in test [5], 8.66 in test [2] and 5.66 in test [4] (setting [6]).
